One test deals with T1, human αvβ3 integrin (Homo sapiens, UniProt P05106+P06756).
T1 construct: was purified from human placenta; from tissue; host or cells: human placenta
Nature of the test: αvβ3-vitronectin binding assay (solid phase). The conditions noted are these: for IC50: inhibition of biotinylated vitronectin (5 nM) binding to coated αvβ3, read-out: αvβ3 (IC50 μmol); for ratio between αIIbβ3 and αvβ3 inhibiting activity: selectivity, αIIbβ3 IC50 over αvβ3 IC50. The method, then:
A solid phase assay for the study of αvβ3-vitronectin binding was set up on the basis of already published methods (Wong et al., Molecular Pharmacology 50: 529-537, 1996; Brooks et al., Cell 85: 683-693, 1996). The human αvβ3 integrin was diluted into coating buffer (CB) containing 150 mM NaCl, 1 mM CaCl2, 1 mM MgCl2, 1 mM MnCl2, 20 mM TRIS, pH 7.4 at a concentration of 1.5 μg/ml. Into 96-well plates, 50 μl of the diluted integrin were added and allowed to bind to the plate walls overnight at 4° C. Next day, the assay plates were emptied and 100 μl of blocking buffer (CB buffer with 3% BSA) were added to each well for 45 min at 37° C. After the incubation, the plates were washed three times with 100 μl assay buffer (AB, CB buffer with 0.1% BSA). Serial 1:1 dilution (25 μl/well) of the test compounds were added to the plates, starting from 10 mM solutions in 100% DMSO diluted to 100 µM in AB. The binding reaction was started by addition (25 μl/well) of 10 nM biotinylated vitronectin (final concentration: 5 nM), and lasted 30 min at 37° C. The concentration range of the tested compounds spanned from 50 to 0.0005 μM. At the end of the co-incubation, the assay plates were washed as before and 70 μl of a 1:1000 AB dilution of peroxydase-conjugated streptavidin were added per well and were allowed to react for 45 min at 37° C. Then, the plates were washed as described and 50 μl of ready to use Turbo-TMB substrate for peroxydase were added to each well. After 30 minutes incubation at room temperature, the colour development was stopped with 50 μl sulphuric acid 0.38 M and the plates were read at a wavelength of 450 nm with a Packard plate reader. The values obtained were analyzed by four parameters curve fit in the computer program GraphPad Prism, after normalization by a maximum binding control (Bmax) detected in wells where no competitor was added, and a minimum binding control (NSB) detected in wells where no integrin was coated. Under standard assay conditions, A450 was never under 1.0 for Bmax, and around 0.15 for NSB.
Human vitronectin receptor ([…]v[…]3) was purified from human placenta (Pytela et al., Methods in Enzymology, 144: 475-489, 1987). Turbo-TMB was from PIERCE (34022). BSA (A4503), Vitronectin (V8379), RGD peptide (G4144) and all generic reagents were from SIGMA. Vitronectin was biotinylated according to the procedure indicated in the NHS biotinylation kit from PIERCE (21420). Horseradish peroxydase-streptavidin was from Amersham (RPN1231). 96-well plates were from Costar (#3690, EIA/RIA plate, ½ area flat bottom, high binding).

Test [1] deals with T2, αIIbβ3 integrin (human fibrinogen receptor) (Homo sapiens, UniProt P05106+P08514).
T2 construct: was purified from human platelets; from tissue; host or cells: human platelets
T2 sequence (P08514 32-887 limits assumed): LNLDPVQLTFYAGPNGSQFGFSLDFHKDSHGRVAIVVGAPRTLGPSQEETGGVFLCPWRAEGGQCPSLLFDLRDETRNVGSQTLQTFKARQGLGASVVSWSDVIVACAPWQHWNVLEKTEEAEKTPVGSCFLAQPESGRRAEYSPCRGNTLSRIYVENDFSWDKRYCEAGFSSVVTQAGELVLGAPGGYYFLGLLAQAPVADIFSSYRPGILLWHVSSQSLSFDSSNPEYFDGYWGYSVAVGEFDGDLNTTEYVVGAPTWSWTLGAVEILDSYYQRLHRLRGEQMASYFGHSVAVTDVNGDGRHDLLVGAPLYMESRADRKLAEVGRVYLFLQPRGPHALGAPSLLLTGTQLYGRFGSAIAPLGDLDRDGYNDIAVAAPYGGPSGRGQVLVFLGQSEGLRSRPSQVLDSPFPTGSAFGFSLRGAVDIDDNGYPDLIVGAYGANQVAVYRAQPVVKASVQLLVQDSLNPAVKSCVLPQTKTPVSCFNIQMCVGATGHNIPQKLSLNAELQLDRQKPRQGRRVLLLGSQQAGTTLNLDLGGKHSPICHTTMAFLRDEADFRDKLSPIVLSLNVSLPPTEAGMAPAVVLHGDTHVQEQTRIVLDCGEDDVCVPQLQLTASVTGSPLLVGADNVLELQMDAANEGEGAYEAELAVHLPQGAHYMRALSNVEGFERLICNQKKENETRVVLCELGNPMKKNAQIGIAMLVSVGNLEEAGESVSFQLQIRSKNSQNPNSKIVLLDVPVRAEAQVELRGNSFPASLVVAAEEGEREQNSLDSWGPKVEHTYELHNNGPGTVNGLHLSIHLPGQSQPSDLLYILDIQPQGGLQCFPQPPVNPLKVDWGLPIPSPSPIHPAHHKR
T2 sequence (P08514 891-1039 partner limits assumed): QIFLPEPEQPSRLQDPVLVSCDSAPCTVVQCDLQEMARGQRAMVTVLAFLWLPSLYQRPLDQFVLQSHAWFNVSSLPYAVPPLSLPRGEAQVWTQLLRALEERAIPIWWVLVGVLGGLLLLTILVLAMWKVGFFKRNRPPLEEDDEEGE
T2 sequence (P05106 27-788): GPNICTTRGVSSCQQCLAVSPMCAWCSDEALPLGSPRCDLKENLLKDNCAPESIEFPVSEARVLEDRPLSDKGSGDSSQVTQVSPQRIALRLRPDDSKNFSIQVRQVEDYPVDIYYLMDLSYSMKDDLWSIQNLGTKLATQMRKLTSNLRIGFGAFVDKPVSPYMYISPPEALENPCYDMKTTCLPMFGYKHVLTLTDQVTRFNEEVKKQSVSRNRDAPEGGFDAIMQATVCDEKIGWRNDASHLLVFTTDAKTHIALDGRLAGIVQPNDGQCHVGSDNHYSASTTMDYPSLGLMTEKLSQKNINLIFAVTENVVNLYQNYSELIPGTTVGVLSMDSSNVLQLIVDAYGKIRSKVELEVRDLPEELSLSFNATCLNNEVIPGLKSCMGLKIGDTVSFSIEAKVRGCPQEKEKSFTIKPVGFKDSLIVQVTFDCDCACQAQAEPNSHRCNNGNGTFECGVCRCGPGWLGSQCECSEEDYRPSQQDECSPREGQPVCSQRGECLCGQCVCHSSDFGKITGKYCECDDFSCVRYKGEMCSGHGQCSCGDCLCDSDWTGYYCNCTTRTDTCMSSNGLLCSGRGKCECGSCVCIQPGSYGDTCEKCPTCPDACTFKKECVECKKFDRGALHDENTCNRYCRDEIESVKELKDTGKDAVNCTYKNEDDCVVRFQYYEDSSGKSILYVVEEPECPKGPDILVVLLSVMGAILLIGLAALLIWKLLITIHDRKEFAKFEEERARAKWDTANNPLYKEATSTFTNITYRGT
Briefly: αIIbβ3-fibrinogen binding assay (solid phase). The settings on record: inhibition of biotinylated fibrinogen (10 nM) binding to coated αIIbβ3; read-out: αIIbβ3 (IC50 μmol). The method, then:
A solid phase assay for the study of αIIbβ3-fibrinogen binding was set up on according to the method described for αvβ3. αIIbβ3 integrin was diluted into coating buffer (CB) containing 150 mM NaCl, 1 mM CaCl2, 1 mM MgCl2, 1 mM MnCl2, 20 mM TRIS, pH 7.4 at a concentration of 3 μg/ml. Into 96-well plates, 50 μl of the diluted integrin were added and allowed to bind to the plate walls overnight at 4° C. Next day, the assay plates were emptied and 100 μl of blocking buffer (CB buffer with 3% BSA) were added to each well for 45 min at 37° C. […] Then, the plates were washed as described and 50 μl of ready to use Turbo-TMB substrate for peroxydase were added to each well. After 30 minutes incubation at room temperature, the colour development was stopped with 50 μl sulphuric acid 0.38 M and the plates were read at a wavelength of 450 nm with a Packard plate reader. The values obtained were analysed by four parameters curve fit with the computer program GraphPad Prism, after normalization by a maximum binding control (Bmax) detected in wells where no competitor was added, and a minimum binding control (NSB) detected in wells where no integrin was coated. […]

One may read the IC50 as the concentration that inhibits the measured activity by half.

T1 sequence (P06756 31-889 limits assumed): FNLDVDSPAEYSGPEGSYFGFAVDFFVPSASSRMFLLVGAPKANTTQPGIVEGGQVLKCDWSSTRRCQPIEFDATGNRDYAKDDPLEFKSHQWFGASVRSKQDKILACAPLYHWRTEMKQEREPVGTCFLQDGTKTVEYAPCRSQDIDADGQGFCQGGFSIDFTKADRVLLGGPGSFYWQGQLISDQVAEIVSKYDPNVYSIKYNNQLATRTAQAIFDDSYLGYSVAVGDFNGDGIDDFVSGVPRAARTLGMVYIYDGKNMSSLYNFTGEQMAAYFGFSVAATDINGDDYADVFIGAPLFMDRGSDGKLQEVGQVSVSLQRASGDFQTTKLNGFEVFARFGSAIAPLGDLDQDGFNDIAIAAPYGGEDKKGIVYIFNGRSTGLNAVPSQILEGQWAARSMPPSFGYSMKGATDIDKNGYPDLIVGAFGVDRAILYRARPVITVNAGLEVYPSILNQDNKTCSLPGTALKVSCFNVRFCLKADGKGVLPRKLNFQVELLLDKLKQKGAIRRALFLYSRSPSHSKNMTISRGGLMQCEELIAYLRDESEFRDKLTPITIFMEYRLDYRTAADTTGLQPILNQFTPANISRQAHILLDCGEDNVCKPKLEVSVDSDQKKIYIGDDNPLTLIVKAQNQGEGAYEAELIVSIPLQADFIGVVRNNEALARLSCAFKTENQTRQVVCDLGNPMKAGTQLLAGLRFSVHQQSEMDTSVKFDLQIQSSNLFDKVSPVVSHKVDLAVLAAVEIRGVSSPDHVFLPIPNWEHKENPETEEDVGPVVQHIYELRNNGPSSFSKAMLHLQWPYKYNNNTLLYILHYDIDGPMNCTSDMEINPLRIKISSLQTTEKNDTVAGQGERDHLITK
T1 sequence (P06756 891-1048 partner limits assumed): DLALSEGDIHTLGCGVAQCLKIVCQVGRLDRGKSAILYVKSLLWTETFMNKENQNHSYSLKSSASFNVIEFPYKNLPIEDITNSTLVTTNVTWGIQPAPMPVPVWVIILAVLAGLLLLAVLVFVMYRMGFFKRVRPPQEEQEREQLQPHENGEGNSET
T1 sequence (P05106 27-788): as the sequence (P05106 27-788) above

`O=C(O)CC1CN(c2ccccc2)c2cc(NC(=O)CCNc3ccccn3)ccc2O1` (stereo not drawn) [Compound 1a, (4-phenyl-6-{[3-(2-pyridinylamino)propanoyl]amino}-3,4-dihydro-2H-1,4-benzoxazin-2-yl)acetic acid]: the IC50 at human αvβ3 integrin worked out at 0.044 ± 0.025 µM; in test [1], 30 µM. The “ratio between αIIbβ3 and αvβ3 inhibiting activity” value at human αvβ3 integrin is “about 1,000”.

Turning to `O=C(O)CC1CN(c2ccccc2)c2cc(NC(=O)CCCNc3ccccn3)ccc2O1` (stereo not drawn) [Compound 1b, (4-phenyl-6-{[4-(2-pyridinylamino)butanoyl]amino}-3,4-dihydro-2H-1,4-benzoxazin-2-yl)acetic acid], at human αvβ3 integrin, the IC50 came to 0.024 ± 0.009 µM; the “ratio between αIIbβ3 and αvβ3 inhibiting activity” value is given as “about 1,000”. Besides, the IC50 in test [1] amounted to 27 µM.

These data come from patent US6794385B2, “Benzoxazine derivatives useful as integrin receptor antagonists” (Pharmacia & Upjohn, S.p.A., priority 2001, dated 2004).
